Values quoted from earlier work in article PMC9660540 (Clinical Cancer Research, 2022).
Like-named read-outs stand apart in the source and are kept apart here.

Assays:
[1] = tested on: advanced NSCLC; details: in combination with carboplatin, pemetrexed, and pembrolizumab; of 6 evaluable patients; ref [47]; cited from earlier work
[2] = cited from earlier work
[3] = phase I trials; ref [45]; cited from earlier work
[4] = tested on: mCRPC; details: cited from earlier work; for OS benefit: phase III clinical trials, ref [35–37]
[5] = tested on: renal cell carcinoma (RCC); details: pretreated patients with RCC; ref [43]; cited from earlier work

Cc1c(C#N)cccc1-c1cc(-c2cn(Cc3cccc(C(C)(C)O)n3)nn2)nc(N)n1 [AB928]
Patients with a PR [1]: 3 patients

C[S@+]([O-])CCOc1cc(N2CCN(CCn3c(=O)sc4c3nc(N)n3nc(-c5ccco5)nc43)CC2)c(F)cc1F [EOS100850]
Grade ≥3 treatment-related AEs ([2]; up to doses of 160 mg twice daily, ref [42, 45]): no grade ≥3 treatment-related AEs | Best response of SD [3]: 6 patients

Nc1nc(-n2cccn2)nc(-n2cccn2)c1Br [NIR178]
Grade ≥3 treatment-related AEs ([2]; monotherapy, at the highest doses (480 and 640 mg), ref [42, 44]): nausea, increased AST, ALT, and lipase levels, and pneumonitis

CO[C@H]1C(=O)[C@]2(C)[C@@H](OC)C[C@H]3OC[C@@]3(OC(C)=O)[C@H]2[C@H](OC(=O)c2ccccc2)[C@]2(O)C[C@H](OC(=O)[C@H](O)[C@@H](NC(=O)OC(C)(C)C)c3ccccc3)C(C)=C1C2(C)C [cabazitaxel]
Median PFS ([4]; later-line mCRPC, ref [48]): 3.9 months

Cc1ccc(-c2nc(N)nc3c2nnn3Cc2cccc(CO[C@H]3CCOC3)n2)o1 [ciforadenant]
Patients with tumor regression ([4]; mCRPC, with or without atezolizumab, of 33 patients, ref [46]): 5 patients | Patients with a PR [5]: 3% | Most common treatment-related AEs ([2]; ref [42, 43]): fatigue, nausea, and pruritus

atezolizumab: anti–PD-L1 antibody
OS benefit ([4]; mCRPC): failed to demonstrate an OS benefit

durvalumab: human immunoglobulin G1 monoclonal antibody that inhibits binding of PD-L1 to PD-1 and CD80
Grade 3−4 treatment-related events ([2]; durvalumab monotherapy, PACIFIC study, ref [33]): 11.8%

ipilimumab: anti–CTLA-4 antibody
OS benefit ([4]; mCRPC): failed to demonstrate an OS benefit
